{
  "source": "patent US9446127B2",
  "about": "“Compositions including androgen receptor degradation (ARD) enhancers and methods of prophylactic or therapeutic treatment of skin disorders and hair loss” (AndroScience Corporation, priority 2007, dated 2016)",
  "key": {"[1]": {"system": "ER beta, PPARα, β or γ, RXRα, hsp70, actin", "experiment": "Specificity Western blot in LNCaP cell lysates, other nuclear receptors or proteins", "assay_type": "cell-based, human", "settings": "1 or 5 micromolar, 24 hours, presence or absence of DHT", "description": "(§1) Human prostate cancer LNCaP cells and T47D cells were plated at a density of 7×10^5 cells per 60 millimeter tissue culture dish in […] medium containing 10% FBS. The medium was changed to RPMI or DME medium containing 10% charcoal-stripped serum 24 hours later to deplete cellular androgens or estrogens. After another 24 hours, treatment with the test compounds began. The test dose of ASC-J9 was 1, and 5 and micromolar. LNCap cells also received dihydrotestosterone (DHT) (3 nanomolar). Control cells received a corresponding amount of the vehicle, dimethylsulfoxide (DMSO) (<0.04%) for an equivalent exposure time. Cells were incubated with ASC-J9 for 24 hours, and were lysed in 250 microliters of 1×SDS/PAGE loading buffer. Approximately 40 micrograms of total cellular protein was loaded in each lane of a pre-cast gel (NuPAGE, Invitrogen). Protein separation and transfer were performed following the manufacturer's instructions.\nFor the LNCaP cell lysates, androgen receptor (AR) protein was visualized by incubating the resultant membranes with an anti-AR antibody (BD-PharMingen), followed by chemiluminescence detection (ECL Plus, Amersham). […] The resultant protein signals were quantified using densitometry and NIH ImageJ software."}, "[2]": {"system": "PPARγ, PPARβ, RXRα, ERα and Erβ, ERK, HSP70 and actin", "experiment": "Specificity Western blot in T47D cell lysates, other receptor proteins", "assay_type": "cell-based, human", "settings": "T47D cell lysates (FIG. 6)", "description": "as §1"}, "[3]": {"system": "acne-affected skin", "experiment": "Topical treatment of acne in human volunteers", "assay_type": "in vivo", "description": "In this example, human subjects were successfully treated for acne by topical administration of a cream containing the compound ASC-J15 or ASC-J9, which were shown in the previous examples to ameliorate the effects of the androgen receptor-activated pathway, specifically by inducing degradation of the androgen receptor. A basic carrier formulation was prepared by mixing two solutions: (1) a water-based solution containing aristoflex avc, Osmocide, Tween 20, and water; and (2) an oil-based solution containing isopropyl myristate, coconut dienthanolamine, ethylparaben, isobutylparaben, methylparaben, and propylparaben. […]\nMale and female human volunteers ranging in age from 15 years to 52 years were treated by topical application of the test compounds to the acne-affected skin. Subjects were asked to apply the cream to the acne-affected areas twice a day (once in the morning and once in the evening). […] The results are given in Table 2, and a representative result (photo pictures) from one volunteer is depicted in FIG. 14. FIG. 14A depicts the volunteer's forehead and FIG. 14B depicts the volunteer's back."}, "[4]": {"molecular_target": "T1, androgen receptor (AR) (Homo sapiens, UniProt P10275)", "T1 construct": "Incubating T47D cells with ASC-J9 (5 or 10 micromolar) in the presence or absence of estrodial (E2) decreased the cellular concentrations of AR; endogenous in cells; host or cells: T47D", "T1 sequence (P10275 1-920)": "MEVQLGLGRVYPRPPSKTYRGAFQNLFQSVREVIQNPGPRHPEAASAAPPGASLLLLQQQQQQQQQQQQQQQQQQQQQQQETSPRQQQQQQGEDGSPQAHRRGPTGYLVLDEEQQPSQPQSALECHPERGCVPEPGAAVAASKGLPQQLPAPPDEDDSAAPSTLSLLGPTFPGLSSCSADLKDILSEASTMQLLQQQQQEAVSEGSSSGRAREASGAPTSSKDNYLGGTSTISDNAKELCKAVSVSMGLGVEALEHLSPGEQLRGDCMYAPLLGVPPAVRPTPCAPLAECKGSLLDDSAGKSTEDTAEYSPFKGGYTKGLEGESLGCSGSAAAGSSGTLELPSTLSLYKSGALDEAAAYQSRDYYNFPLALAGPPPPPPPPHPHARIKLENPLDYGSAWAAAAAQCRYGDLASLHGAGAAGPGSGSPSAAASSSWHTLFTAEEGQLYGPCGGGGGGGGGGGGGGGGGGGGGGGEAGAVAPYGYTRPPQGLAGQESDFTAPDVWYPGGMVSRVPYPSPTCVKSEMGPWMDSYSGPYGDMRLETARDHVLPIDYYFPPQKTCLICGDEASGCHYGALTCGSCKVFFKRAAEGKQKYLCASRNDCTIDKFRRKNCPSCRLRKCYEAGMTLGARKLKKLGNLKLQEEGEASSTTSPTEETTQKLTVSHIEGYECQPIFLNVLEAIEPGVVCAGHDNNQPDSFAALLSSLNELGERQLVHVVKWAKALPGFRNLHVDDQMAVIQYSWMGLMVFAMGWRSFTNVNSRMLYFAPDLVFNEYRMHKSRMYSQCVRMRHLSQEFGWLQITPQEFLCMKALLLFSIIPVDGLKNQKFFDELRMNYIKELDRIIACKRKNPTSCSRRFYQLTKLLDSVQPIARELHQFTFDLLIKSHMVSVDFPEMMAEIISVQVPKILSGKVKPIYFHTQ", "experiment": "Specificity Western blot in T47D cell lysates, AR", "assay_type": "cell-based", "settings": "5 or 10 micromolar, presence or absence of estrodial (E2)", "description": "as §1"}},
  "note": "“And” between values parts separate entries of the source, which are not always exact repeats. Equal values may be shown once.",
  "data": [
    {"smiles": "COc1ccc(C=CC(=O)C=C(O)C=Cc2ccc(OC)c(OC)c2)cc1OC", "note": "[ASC-J9, 5-hydroxy-1,7-bis(3,4-dimethoxyphenyl)-1,4,6-heptatrien-3-one]", "values": [
      {"measurement": "other tested nuclear receptors or proteins", "setting": "[1]", "result": "did not substantially affect"},
      {"measurement": "expression of other receptor proteins", "setting": "[2]", "result": "not affected"},
      {"measurement": "Recovery Time", "setting": "[3]; topical cream 1 micromolar, one line per subject (age, sex, frequency in Table 2)", "result": "2 weeks and 1 week weeks"},
      {"measurement": "Recovery Time", "setting": "[3]; topical cream 2.5 micromolar, twice a day, subject 24", "result": 1, "unit": "week"},
      {"measurement": "skin condition of acne-affected male volunteers (photographs)", "setting": "[3]; topical, 2.5 micromolar forehead (FIG. 14A), 625 μM back (FIG. 14B)", "result": "visible improvement to skin condition"},
      {"measurement": "cellular concentration of AR", "setting": "[4]", "result": "decreased"}
    ]}
  ]
}
